Experimental data published in paper PMC6270878, “Trigocherrierin A, a Potent Inhibitor of Chikungunya Virus Replication” (Molecules, 2014).

Legend:
[1] = tested on: chikungunya virus (CHIKV); assay: Chikungunya virus-cell based antiviral assay (inhibition of virus-induced cell death, MTS readout); details: for EC50: Chikungunya virus, Vero, read-out: EC50 (50% effective concentration, inhibits CHIKV-induced cell death by 50%); for selectivity index (SI), CC50 Vero/EC50 CHIKV: ratio of CC50 to EC50
[2] = in vitro; details: African green monkey

| Structure (SMILES) | EC50 [1] | CC50 [2] | selectivity index (SI), CC50 Vero/EC50 CHIKV [1] |
| --- | --- | --- | --- |
| CCN(CC)CCCC(C)Nc1ccnc2cc(Cl)ccc12 (centres unmarked) [Chloroquine, chloroquine, reference compound] | 10 ± 5 µM | 89 ± 28 µM |  |
| C=C(C)C12OC3(c4ccccc4)OC1C1C4OC4(CO)C(O)C4(O)C(O)C(C)=CC4C1(O3)C(C)C2OC(=O)C(C)CCCCCCCC (centres unmarked) [Compound 1, Trigocherrierin A] | 0.6 ± 0.1 µM | 43 ± 16 µM | 71.7 |
| CC1CCCCCCC(C)C(=O)OC2C(=CCl)C=C3C2(O)C(O)C2(CO)OC2C2C4OC5(c6ccccc6)OC(C(C)C32O5)C4(O)C(O)(CO)C1 (centres unmarked) [Compound 2, Trigocherriolide E] | 0.7 ± 0.1 µM | 6.6 ± 0.6 µM | 9.4 |
